Experiment [1] concerns the target T1, human full length PIK3KA H1047R mutant (p110α/p85α complex) (Homo sapiens, UniProt P42336, H1047R).
T1 construct: Recombinant, catalytically active human full length PIK3KA Wild-type and H1047R mutant were purchased as 1:1 complex; 6xHis (N); purchased EMD Millipore Sigma 14-792M
Description: PI3K-alpha kinase (PIK3CA) biochemical activity, H1047R mutant, ADP-Glo. As to conditions: PI3K-α (PIK3CA) biochemical, H1047R mutant, Soy PI lipid substrate. A digest of the protocol:
(§1)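 Full-length His-p110α/p85α complex, wild-type or H1047R, 1–5 nM, preincubated with compound 1 h at 27 °C in HEPES pH 7.4, 25 mM MgCl2, 0.01% Triton X-100, 1% DMSO. Reaction with 20 μM ATP and 50 μM PIP2diC8 or soy PI at 27 °C to ~10% ATP conversion; ADP-Glo luminescence. IC50 from 10-point four-parameter logistic fit.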

Experiment [2] relates to PI3K-α (PIK3CA) in MDA-MB-453 cells. Briefly: PI3K-alpha kinase (PIK3CA) activity in vitro cell based assay, MDA-MB-453 cells, AlphaLisa SureFire. As to conditions: 0% FBS, 3 hours treatment, relative IC50. An outline of the steps: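 MDA-MB-453 cells in serum-free MEM with 1 μg/mL insulin treated 3 h with 10-point 1:3 compound dilutions, 0.3% DMSO. Lysates read by AlphaLisa SureFire; percent inhibition relative to DMSO (max) and 1 μM GDC-0032 (min), duplicate means fitted to 4-parameter logistic for relative IC50.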

The target in experiment [3] is T2, human full length PIK3KA Wild-type (p110α/p85α complex) (Homo sapiens, UniProt P42336).
T2 construct: Recombinant, catalytically active human full length PIK3KA Wild-type and H1047R mutant were purchased as 1:1 complex; 6xHis (N); purchased EMD Millipore Sigma 14-602M
Briefly: PI3K-alpha kinase (PIK3CA) biochemical activity, wild-type, ADP-Glo. As to conditions: PI3K-α (PIK3CA) biochemical, Soy PI lipid substrate. An outline of the steps: as §1
A general note: ADP-Glo first removes unused ATP, then detects ADP through luciferase.

Where only a bound is given, the exact number is not on record here.

T1 sequence (P42336 whole entry H1047R): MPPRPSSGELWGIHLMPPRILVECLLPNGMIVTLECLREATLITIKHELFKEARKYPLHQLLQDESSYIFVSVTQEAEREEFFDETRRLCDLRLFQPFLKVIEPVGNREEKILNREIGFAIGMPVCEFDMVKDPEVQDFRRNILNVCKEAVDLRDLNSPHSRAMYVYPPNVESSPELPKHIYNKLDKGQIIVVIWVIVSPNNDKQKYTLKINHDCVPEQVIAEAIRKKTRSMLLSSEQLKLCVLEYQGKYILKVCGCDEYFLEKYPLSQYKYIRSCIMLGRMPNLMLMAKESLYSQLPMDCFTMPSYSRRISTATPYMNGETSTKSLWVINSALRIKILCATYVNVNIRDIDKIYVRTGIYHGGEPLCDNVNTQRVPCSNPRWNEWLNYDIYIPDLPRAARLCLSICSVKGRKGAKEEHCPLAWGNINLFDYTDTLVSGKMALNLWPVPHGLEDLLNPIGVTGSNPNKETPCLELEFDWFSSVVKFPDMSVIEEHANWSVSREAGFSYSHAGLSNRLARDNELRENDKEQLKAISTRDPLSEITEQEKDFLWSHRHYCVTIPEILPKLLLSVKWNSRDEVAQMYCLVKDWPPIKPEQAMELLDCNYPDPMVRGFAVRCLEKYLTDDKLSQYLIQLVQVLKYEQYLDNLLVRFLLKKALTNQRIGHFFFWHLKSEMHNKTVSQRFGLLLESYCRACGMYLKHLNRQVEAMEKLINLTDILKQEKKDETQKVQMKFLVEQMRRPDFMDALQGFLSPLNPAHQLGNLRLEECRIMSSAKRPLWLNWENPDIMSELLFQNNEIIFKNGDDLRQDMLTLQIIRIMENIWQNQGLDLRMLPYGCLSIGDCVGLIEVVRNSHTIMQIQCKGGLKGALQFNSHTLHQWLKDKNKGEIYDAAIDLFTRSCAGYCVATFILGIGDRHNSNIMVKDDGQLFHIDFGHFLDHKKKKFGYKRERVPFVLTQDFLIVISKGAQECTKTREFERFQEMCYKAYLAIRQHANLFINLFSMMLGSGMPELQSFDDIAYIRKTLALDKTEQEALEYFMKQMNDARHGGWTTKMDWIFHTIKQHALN
T1 sequence (P27986 whole entry partner): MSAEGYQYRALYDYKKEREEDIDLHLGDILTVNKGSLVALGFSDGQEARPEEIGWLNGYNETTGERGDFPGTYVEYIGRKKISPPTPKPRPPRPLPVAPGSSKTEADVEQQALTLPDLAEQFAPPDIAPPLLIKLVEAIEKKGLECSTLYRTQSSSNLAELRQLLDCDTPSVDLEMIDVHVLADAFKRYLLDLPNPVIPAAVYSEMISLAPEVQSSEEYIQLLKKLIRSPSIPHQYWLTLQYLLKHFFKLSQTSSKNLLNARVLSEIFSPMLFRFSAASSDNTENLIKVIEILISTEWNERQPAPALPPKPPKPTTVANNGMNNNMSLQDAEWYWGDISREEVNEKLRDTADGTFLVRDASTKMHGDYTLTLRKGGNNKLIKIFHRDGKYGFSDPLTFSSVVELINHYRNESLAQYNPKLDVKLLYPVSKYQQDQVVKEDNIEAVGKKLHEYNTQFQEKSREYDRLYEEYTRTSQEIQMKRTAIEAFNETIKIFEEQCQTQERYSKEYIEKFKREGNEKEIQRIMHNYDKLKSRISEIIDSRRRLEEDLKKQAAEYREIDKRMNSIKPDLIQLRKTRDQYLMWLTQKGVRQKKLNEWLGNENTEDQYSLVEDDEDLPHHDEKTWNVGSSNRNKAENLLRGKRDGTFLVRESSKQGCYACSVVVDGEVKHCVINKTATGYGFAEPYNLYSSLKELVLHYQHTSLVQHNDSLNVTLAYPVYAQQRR

In general, IC50 refers to the concentration that inhibits the measured activity by half. For `Cc1cc([C@@H](C)Nc2ccccc2C(=O)O)c2oc(-c3ccccc3)c(NCCC(=O)O)c(=O)c2c1` [Example 171, 2-[[(1R)-1-[3-(2-Carboxyethylamino)-6-methyl-4-oxo-2-phenyl-chromen-8-yl]ethyl]amino]benzoic acid 2,2,2-trifluoroacetic acid], the 50% inhibitory concentration (IC50) was 500 to 1000 nM in experiment [1]; more than 500 nM in experiment [2] (Homo sapiens, MDA-MB-453, 3 h); more than 10000 nM in experiment [3].
In the same order, the values of `Cc1c(-c2ccccc2)oc2c([C@@H](C)Nc3ccccc3C(=O)O)cc(F)cc2c1=O` [Example 84, 2-[[(1R)-1-(6-Fluoro-3-methyl-4-oxo-2-phenyl-chromen-8-yl)ethyl]amino]benzoic acid 2,2,2-trifluoroacetic acid] are less than 500 nM, more than 500 nM and 5000 to 10000 nM.
On to `Cc1c(-c2ccc(F)c(F)c2)oc2c([C@@H](C)Nc3ccc(Cl)nc3C(=O)O)cc(C(F)(F)F)cc2c1=O` [Example 96, 6-Chloro-3-[[(1R)-1-[2-(3,4-difluorophenyl)-3-methyl-4-oxo-6-(trifluoromethyl)-chromen-8-yl]ethyl]amino]pyridine-2-carboxylic acid], for which the 50% inhibitory concentration (IC50) in experiment [1] is less than 500 nM; in experiment [2] (Homo sapiens, MDA-MB-453, 3 h) it was less than 50 nM; in experiment [3], 1000 to 5000 nM.
In the same order, the values of `Cc1cc([C@@H](C)Nc2ccccc2C(=O)O)c2oc(-c3ccc(-c4ncco4)cc3)cc(=O)c2c1` [Example 32, 2-[[(1R)-1-[6-Methyl-2-(4-oxazol-2-ylphenyl)-4-oxo-chromen-8-yl]ethyl]amino]benzoic acid] are less than 500 nM, less than 50 nM and 5000 to 10000 nM.
In the same order, the values of `Cc1cc([C@@H](C)Nc2ccccc2C(=O)O)c2oc(-c3cccc(C#N)c3)c(C)c(=O)c2c1` [Example 30, 2-[[(1R)-1-[2-(3-Cyanophenyl)-3,6-dimethyl-4-oxo-chromen-8-yl]ethyl]amino]benzoic acid] are less than 500 nM, less than 50 nM and 500 to 1000 nM.
In the same order, the values of `Cc1cc([C@@H](C)Nc2ccc(Br)nc2C(=O)O)c2oc(-c3cccc(C#N)c3)c(C)c(=O)c2c1` [Example 141, 6-Bromo-3-[[(1R)-1-[2-(3-cyanophenyl)-3,6-dimethyl-4-oxo-chromen-8-yl]ethyl]amino]pyridine-2-carboxylic acid] are less than 500 nM, less than 50 nM and less than 500 nM.
With `Cc1cc(C(C)Nc2cccc(F)c2C(=O)O)c2oc(-c3ccccc3F)c(C)c(=O)c2c1` (stereo not drawn) [Example 94, 2-Fluoro-6-[1-[2-(2-fluorophenyl)-3,6-dimethyl-4-oxo-chromen-8-yl]ethylamino]benzoic acid 2,2,2-trifluoroacetic acid], the IC50 was less than 500 nM in experiment [1]; less than 50 nM in experiment [2] (Homo sapiens, MDA-MB-453, 3 h); 1000 to 5000 nM in experiment [3].
In the same order, the values of `Cc1cc([C@@H](C)Nc2ccc(C)nc2C(=O)O)c2oc(-c3ccccc3F)c(C)c(=O)c2c1` [Example 148, 3-[[(1R)-1-[2-(2-Fluorophenyl)-3,6-dimethyl-4-oxo-chromen-8-yl]ethyl]amino]-6-methyl-pyridine-2-carboxylic acid] are 500 to 1000 nM, less than 50 nM and 5000 to 10000 nM.
In the same order, the values of `Cc1cc(C(C)Nc2ccc(C)nc2C(=O)O)c2oc(-c3ccccc3)c(C(F)(F)F)c(=O)c2c1` (stereo not drawn) [Example 101, 6-Methyl-3-[1-[6-methyl-4-oxo-2-phenyl-3-(trifluoromethyl)-chromen-8-yl]ethylamino]pyridine-2-carboxylic acid 2,2,2-trifluoroacetic acid] are less than 500 nM, less than 50 nM and less than 500 nM.
`Cc1cc([C@@H](C)Nc2ccc(Cl)c(F)c2C(=O)O)c2oc(-c3ccccc3)c(C)c(=O)c2c1` [Example 42, 3-Chloro-6-[[(1R)-1-(3,6-dimethyl-4-oxo-2-phenyl-chromen-8-yl)ethyl]amino]-2-fluoro-benzoic acid]: the half-maximal inhibitory concentration (IC50) was less than 500 nM in experiment [1]; less than 50 nM in experiment [2] (Homo sapiens, MDA-MB-453, 3 h); 500 to 1000 nM in experiment [3].
In the same order, the values of `Cc1c(-c2ccccc2)oc2c([C@@H](C)Nc3ccc(Cl)nc3C(=O)O)cc(C(F)(F)F)cc2c1=O` [Example 91, 6-Chloro-3-[[(1R)-1-[3-methyl-4-oxo-2-phenyl-6-(trifluoromethyl)-chromen-8-yl]ethyl]amino]pyridine-2-carboxylic acid] are less than 500 nM, less than 50 nM and 1000 to 5000 nM.
On to `Cc1cc([C@@H](C)Nc2ccccc2C(=O)O)c2oc(-c3ccccc3)c(-c3cccnc3)c(=O)c2c1` [Example 156, 2-[[(1R)-1-[6-Methyl-4-oxo-2-phenyl-3-(3-pyridyl)chromen-8-yl]ethyl]amino]benzoic acid 2,2,2-trifluoroacetic acid], for which the 50% inhibitory concentration (IC50) in experiment [1] was in the range of 500 to 1000 nM; in experiment [2] (Homo sapiens, MDA-MB-453, 3 h), 100 to 500 nM; in experiment [3], 1000 to 5000 nM.
In the case of `COc1cccc(-c2cc(=O)c3cc(C)cc([C@@H](C)Nc4ccccc4C(=O)O)c3o2)c1` [Example 60, 2-[[(1R)-1-[2-(3-Methoxyphenyl)-6-methyl-4-oxo-chromen-8-yl]ethyl]amino]benzoic acid 2,2,2-trifluoroacetic acid], the 50% inhibitory concentration (IC50) in experiment [1] is less than 500 nM; in experiment [2] (Homo sapiens, MDA-MB-453, 3 h) it was less than 50 nM; in experiment [3], 500 to 1000 nM.
For the compound `Cc1cc(C(C)Nc2cccnc2C(=O)O)c2oc(-c3ccccc3F)c(C)c(=O)c2c1` (stereo not drawn) [Example 93, 3-[1-[2-(2-Fluorophenyl)-3,6-dimethyl-4-oxo-chromen-8-yl]ethylamino]pyridine-2-carboxylic acid 2,2,2-trifluoroacetic acid], the IC50 in experiment [1] was 1000 to 5000 nM; in experiment [2] (Homo sapiens, MDA-MB-453, 3 h), 100 to 500 nM; in experiment [3], more than 10000 nM.
In the same order, the values of `Cc1cc([C@@H](C)Nc2ccc(C3CC3)nc2C(=O)O)c2oc(-c3ccccc3)c(C)c(=O)c2c1` [Example 40, 6-Cyclopropyl-3-[[(1R)-1-(3,6-dimethyl-4-oxo-2-phenyl-chromen-8-yl)ethyl]amino]-pyridine-2-carboxylic acid] are less than 500 nM, 50 to 100 nM and 5000 to 10000 nM.
In the same order, the values of `Cc1cc(C(C)Nc2cccc(F)c2C(=O)O)c2oc(-c3cccc(F)c3)c(C)c(=O)c2c1` (stereo not drawn) [Example 95, 2-Fluoro-6-[1-[2-(3-fluorophenyl)-3,6-dimethyl-4-oxo-chromen-8-yl]ethylamino]benzoic acid 2,2,2-trifluoroacetic acid] are less than 500 nM, less than 50 nM and 1000 to 5000 nM.
Regarding `CC(=O)c1c(-c2ccccc2)oc2c([C@@H](C)Nc3ccccc3C(=O)O)cc(C)cc2c1=O` [Example 119, 2-[[(1R)-1-(3-Acetyl-6-methyl-4-oxo-2-phenyl-chromen-8-yl)ethyl]amino]benzoic acid 2,2,2-trifluoroacetic acid], the concentration for half-maximal inhibition (IC50) in experiment [1] is less than 500 nM; in experiment [2] (Homo sapiens, MDA-MB-453, 3 h) it was less than 50 nM; in experiment [3] it was 500 to 1000 nM.
For the compound `Cc1c(-c2ccc(F)cc2F)oc2c([C@@H](C)Nc3ccc(Cl)nc3C(=O)O)cc(C(F)(F)F)cc2c1=O` [Example 99, 6-Chloro-3-[[(1R)-1-[2-(2,4-difluorophenyl)-3-methyl-4-oxo-6-(trifluoromethyl)-chromen-8-yl]ethyl]amino]pyridine-2-carboxylic acid], the IC50 is less than 500 nM in experiment [1]; less than 50 nM in experiment [2] (Homo sapiens, MDA-MB-453, 3 h); 500 to 1000 nM in experiment [3].
“2-[[(1R)-1-[3,6-Dimethyl-4-oxo-2-[4-(1H-pyrazol-5-yl)phenyl]chromen-8-yl]ethyl]amino]benzoic acid [Example 169]”: the IC50 is less than 500 nM in experiment [1], less than 50 nM in experiment [2] and less than 500 nM in experiment [3].
As to `COc1ccc(N[C@H](C)c2cc(C)cc3c(=O)c(C)c(-c4ccccc4)oc23)c(C(=O)O)n1` [Example 135, 6-Methoxy-3-[[(1R)-1-(3,6-dimethyl-4-oxo-2-phenyl-chromen-8-yl)ethyl]amino]pyridine-2-carboxylic acid 2,2,2-trifluoroacetic acid], the half-inhibitory concentration (IC50) in experiment [1] is less than 500 nM; in experiment [2] (Homo sapiens, MDA-MB-453, 3 h), less than 50 nM; in experiment [3], 500 to 1000 nM.
In the same order, the values of `Cc1c(-c2ccccc2)oc2c([C@@H](C)Nc3cccnc3C(=O)O)cc(C(F)(F)F)cc2c1=O` [Example 122, 3-[[(1R)-1-[3-Methyl-4-oxo-2-phenyl-6-(trifluoromethyl)-chromen-8-yl]ethyl]amino]pyridine-2-carboxylic acid] are 1000 to 5000 nM, 50 to 100 nM and more than 10000 nM.
In the same order, the values of `CNC(=O)c1ccc(-c2oc3c([C@@H](C)Nc4ccccc4C(=O)O)cc(C)cc3c(=O)c2C)cc1` [Example 151, 2-[[(1R)-1-[3,6-Dimethyl-2-[4-(methylcarbamoyl)phenyl]-4-oxo-chromen-8-yl]ethyl]amino]benzoic acid] are less than 500 nM, less than 50 nM and 1000 to 5000 nM.

The values are drawn from patent US11873295B2, “Allosteric chromenone inhibitors of phosphoinositide 3-kinase (PI3K) for the treatment of disease” (Petra Pharma Corporation, priority 2021, dated 2024).
